Results from ChEMBL document CHEMBL4507260 (2021).

Experiments:
Conditions in all cases: Compound concentration 1000.0 nM
[1] = target: Activin receptor type-1-like (Homo sapiens) (UniProt P37023)
[2] = target: Atypical kinase COQ8A, mitochondrial (Homo sapiens) (UniProt Q8NI60)
[3] = target: Cytoplasmic tyrosine-protein kinase BMX (Homo sapiens) (UniProt P51813)
[4] = target: Cyclin-dependent kinase 11B (Homo sapiens) (UniProt P21127)
[5] = target: Cyclin-dependent kinase 8 (Homo sapiens) (UniProt P49336)
[6] = target: Casein kinase I isoform gamma-3 (Homo sapiens) (UniProt Q9Y6M4)
[7] = target: Serine/threonine-protein kinase DCLK1 (Homo sapiens) (UniProt O15075)
[8] = target: Myotonin-protein kinase (Homo sapiens) (UniProt Q09013)
[9] = target: Serine/threonine-protein kinase MRCK gamma (Homo sapiens) (UniProt Q6DT37)
[10] = test system: Epidermal growth factor receptor (Homo sapiens), P00533 [UNDEFINED MUTATION]
[11] = test system: Epidermal growth factor receptor (Homo sapiens), P00533 [L858R,T790M]
[12] = test system: Epidermal growth factor receptor (Homo sapiens), P00533 [T790M]
[13] = target: Ephrin type-A receptor 4 (Homo sapiens) (UniProt P54764)
[14] = target: Receptor tyrosine-protein kinase erbB-2 (Homo sapiens) (UniProt P04626)
[15] = test system: Fibroblast growth factor receptor 3 (Homo sapiens), P22607 [G697C]
[16] = test system: Receptor-type tyrosine-protein kinase FLT3 (Homo sapiens), P36888 [UNDEFINED MUTATION]
[17] = target: Tyrosine-protein kinase JAK1 (Homo sapiens) (UniProt P23458)
[18] = test system: Mast/stem cell growth factor receptor Kit (Homo sapiens), P10721 [L576P]
[19] = target: Serine/threonine-protein kinase LATS1 (Homo sapiens) (UniProt O95835)
[20] = target: LIM domain kinase 2 (Homo sapiens) (UniProt P53671)
[21] = target: Serine/threonine-protein kinase 10 (Homo sapiens) (UniProt O94804)
[22] = test system: Leucine-rich repeat serine/threonine-protein kinase 2 (Homo sapiens), Q5S007 [G2019S]
[23] = target: Serine/threonine-protein kinase MARK1 (Homo sapiens) (UniProt Q9P0L2)
[24] = target: Microtubule-associated serine/threonine-protein kinase 1 (Homo sapiens) (UniProt Q9Y2H9)
[25] = target: Tyrosine-protein kinase Mer (Homo sapiens) (UniProt Q12866)
[26] = target: MAP kinase-interacting serine/threonine-protein kinase 2 (Homo sapiens) (UniProt Q9HBH9)
[27] = target: Macrophage-stimulating protein receptor (Homo sapiens) (UniProt Q04912)
[28] = target: Myosin light chain kinase, smooth muscle (Homo sapiens) (UniProt Q15746)
[29] = target: Serine/threonine-protein kinase Nek5 (Homo sapiens) (UniProt Q6P3R8)
[30] = test system: Phosphatidylinositol 4,5-bisphosphate 3-kinase catalytic subunit alpha isoform (Homo sapiens), P42336 [C420R]
[31] = test system: Phosphatidylinositol 4,5-bisphosphate 3-kinase catalytic subunit alpha isoform (Homo sapiens), P42336 [E545A]
[32] = target: Serine/threonine-protein kinase PLK4 (Homo sapiens) (UniProt O00444)
[33] = target: Protein kinase C iota type (Homo sapiens) (UniProt P41743)
[34] = target: Serine/threonine-protein kinase D2 (Homo sapiens) (UniProt Q9BZL6)
[35] = target: Serine/threonine-protein kinase RIO2 (Homo sapiens) (UniProt Q9BVS4)
[36] = target: Receptor-interacting serine/threonine-protein kinase 2 (Homo sapiens) (UniProt O43353)
[37] = target: Ribosomal protein S6 kinase alpha-6 (Homo sapiens) (UniProt Q9UK32)
[38] = target: STE20-like serine/threonine-protein kinase (Homo sapiens) (UniProt Q9H2G2)
[39] = target: SRSF protein kinase 3 (Homo sapiens) (UniProt Q9UPE1)
[40] = target: Serine/threonine-protein kinase TBK1 (Homo sapiens) (UniProt Q9UHD2)
[41] = target: Tyrosine-protein kinase Tec (Homo sapiens) (UniProt P42680)
[42] = target: High affinity nerve growth factor receptor (Homo sapiens) (UniProt P04629)
[43] = target: BDNF/NT-3 growth factors receptor (Homo sapiens) (UniProt Q16620)
[44] = target: Tyrosine-protein kinase TXK (Homo sapiens) (UniProt P42681)
[45] = target: Non-receptor tyrosine-protein kinase TYK2 (Homo sapiens) (UniProt P29597)

Measured: residual activity

Sequence of Receptor-type tyrosine-protein kinase FLT3 (Homo sapiens), P36888 [UNDEFINED MUTATION] (P36888 whole entry, looked up, change not shown): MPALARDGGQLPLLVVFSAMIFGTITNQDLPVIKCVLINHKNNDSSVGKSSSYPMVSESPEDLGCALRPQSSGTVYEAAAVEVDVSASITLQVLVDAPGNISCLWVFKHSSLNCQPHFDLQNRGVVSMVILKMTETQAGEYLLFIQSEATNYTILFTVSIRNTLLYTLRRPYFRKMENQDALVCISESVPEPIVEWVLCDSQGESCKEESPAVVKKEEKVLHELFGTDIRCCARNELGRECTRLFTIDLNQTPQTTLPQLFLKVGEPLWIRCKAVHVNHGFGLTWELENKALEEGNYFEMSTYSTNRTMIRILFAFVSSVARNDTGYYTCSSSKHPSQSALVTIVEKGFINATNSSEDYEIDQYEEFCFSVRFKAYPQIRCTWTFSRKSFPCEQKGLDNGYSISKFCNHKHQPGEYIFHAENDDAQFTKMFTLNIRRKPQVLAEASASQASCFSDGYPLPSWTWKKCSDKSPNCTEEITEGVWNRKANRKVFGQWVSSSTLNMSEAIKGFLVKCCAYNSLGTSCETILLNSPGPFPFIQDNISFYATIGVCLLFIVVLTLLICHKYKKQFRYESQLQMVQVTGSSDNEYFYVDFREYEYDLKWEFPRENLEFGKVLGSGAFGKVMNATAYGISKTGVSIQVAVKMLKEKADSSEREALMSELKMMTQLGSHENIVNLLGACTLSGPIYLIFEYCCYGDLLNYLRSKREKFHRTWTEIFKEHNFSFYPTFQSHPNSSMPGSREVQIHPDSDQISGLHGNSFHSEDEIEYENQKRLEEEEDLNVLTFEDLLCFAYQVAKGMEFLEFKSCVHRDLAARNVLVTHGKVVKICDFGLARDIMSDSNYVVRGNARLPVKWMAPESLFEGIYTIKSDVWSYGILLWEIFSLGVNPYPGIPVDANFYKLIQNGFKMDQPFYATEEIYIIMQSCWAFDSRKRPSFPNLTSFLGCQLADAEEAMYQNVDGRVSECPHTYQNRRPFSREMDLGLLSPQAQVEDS
Sequence of Phosphatidylinositol 4,5-bisphosphate 3-kinase catalytic subunit alpha isoform (Homo sapiens), P42336 [E545A] (P42336 whole entry E545A, canonical isoform): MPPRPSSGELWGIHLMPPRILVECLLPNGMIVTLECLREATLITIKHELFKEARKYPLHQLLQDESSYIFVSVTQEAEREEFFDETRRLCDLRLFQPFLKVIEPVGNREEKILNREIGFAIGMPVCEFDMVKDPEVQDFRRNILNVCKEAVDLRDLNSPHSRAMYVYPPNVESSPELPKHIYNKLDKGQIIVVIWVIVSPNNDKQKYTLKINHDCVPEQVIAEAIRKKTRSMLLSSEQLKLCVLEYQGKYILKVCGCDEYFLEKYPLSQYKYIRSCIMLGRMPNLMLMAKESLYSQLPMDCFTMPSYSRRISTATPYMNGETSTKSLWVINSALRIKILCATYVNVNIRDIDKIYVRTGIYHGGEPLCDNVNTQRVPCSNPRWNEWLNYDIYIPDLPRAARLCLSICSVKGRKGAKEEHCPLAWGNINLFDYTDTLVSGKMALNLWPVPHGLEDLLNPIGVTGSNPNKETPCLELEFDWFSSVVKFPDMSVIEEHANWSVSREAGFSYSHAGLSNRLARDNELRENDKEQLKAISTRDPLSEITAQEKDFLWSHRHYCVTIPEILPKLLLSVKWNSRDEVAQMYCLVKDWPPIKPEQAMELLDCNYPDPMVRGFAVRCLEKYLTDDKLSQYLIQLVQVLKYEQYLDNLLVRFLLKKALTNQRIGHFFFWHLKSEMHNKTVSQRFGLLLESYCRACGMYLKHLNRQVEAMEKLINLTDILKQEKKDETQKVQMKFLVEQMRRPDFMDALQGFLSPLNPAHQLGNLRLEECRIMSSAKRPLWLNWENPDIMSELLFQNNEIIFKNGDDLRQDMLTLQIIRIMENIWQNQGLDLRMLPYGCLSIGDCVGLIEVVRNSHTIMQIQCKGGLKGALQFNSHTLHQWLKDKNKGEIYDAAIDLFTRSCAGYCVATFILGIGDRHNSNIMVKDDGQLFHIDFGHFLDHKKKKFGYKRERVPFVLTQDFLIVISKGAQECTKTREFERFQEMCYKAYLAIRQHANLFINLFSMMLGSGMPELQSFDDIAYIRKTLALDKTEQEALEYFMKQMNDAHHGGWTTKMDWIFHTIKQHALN
Sequence of Mast/stem cell growth factor receptor Kit (Homo sapiens), P10721 [L576P] (P10721 whole entry L576P): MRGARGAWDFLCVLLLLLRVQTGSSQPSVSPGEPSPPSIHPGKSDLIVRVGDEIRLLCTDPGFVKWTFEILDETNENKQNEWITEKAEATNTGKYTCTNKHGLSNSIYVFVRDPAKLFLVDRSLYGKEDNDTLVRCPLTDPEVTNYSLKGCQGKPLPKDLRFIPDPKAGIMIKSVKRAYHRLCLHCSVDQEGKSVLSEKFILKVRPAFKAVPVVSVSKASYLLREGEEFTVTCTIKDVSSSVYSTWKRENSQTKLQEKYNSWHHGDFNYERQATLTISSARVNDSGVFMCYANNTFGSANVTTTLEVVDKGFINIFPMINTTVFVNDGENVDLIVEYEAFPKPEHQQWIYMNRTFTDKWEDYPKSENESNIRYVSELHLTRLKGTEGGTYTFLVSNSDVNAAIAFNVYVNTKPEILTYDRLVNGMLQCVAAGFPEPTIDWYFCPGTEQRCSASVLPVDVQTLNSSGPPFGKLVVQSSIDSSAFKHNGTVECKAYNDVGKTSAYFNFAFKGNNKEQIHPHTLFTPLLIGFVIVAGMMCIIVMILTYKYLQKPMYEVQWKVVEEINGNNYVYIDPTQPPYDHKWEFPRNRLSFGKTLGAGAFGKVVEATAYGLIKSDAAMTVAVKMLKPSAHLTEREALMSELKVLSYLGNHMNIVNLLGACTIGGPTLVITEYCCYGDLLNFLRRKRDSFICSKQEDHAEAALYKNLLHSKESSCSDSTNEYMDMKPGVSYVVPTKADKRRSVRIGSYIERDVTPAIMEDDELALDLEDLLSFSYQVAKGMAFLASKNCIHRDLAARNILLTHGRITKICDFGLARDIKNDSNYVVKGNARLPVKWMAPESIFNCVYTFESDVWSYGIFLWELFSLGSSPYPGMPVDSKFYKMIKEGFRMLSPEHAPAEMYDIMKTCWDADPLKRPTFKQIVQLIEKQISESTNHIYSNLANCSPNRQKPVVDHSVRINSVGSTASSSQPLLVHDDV
Sequence of Serine/threonine-protein kinase PLK4 (Homo sapiens) (O00444 whole entry): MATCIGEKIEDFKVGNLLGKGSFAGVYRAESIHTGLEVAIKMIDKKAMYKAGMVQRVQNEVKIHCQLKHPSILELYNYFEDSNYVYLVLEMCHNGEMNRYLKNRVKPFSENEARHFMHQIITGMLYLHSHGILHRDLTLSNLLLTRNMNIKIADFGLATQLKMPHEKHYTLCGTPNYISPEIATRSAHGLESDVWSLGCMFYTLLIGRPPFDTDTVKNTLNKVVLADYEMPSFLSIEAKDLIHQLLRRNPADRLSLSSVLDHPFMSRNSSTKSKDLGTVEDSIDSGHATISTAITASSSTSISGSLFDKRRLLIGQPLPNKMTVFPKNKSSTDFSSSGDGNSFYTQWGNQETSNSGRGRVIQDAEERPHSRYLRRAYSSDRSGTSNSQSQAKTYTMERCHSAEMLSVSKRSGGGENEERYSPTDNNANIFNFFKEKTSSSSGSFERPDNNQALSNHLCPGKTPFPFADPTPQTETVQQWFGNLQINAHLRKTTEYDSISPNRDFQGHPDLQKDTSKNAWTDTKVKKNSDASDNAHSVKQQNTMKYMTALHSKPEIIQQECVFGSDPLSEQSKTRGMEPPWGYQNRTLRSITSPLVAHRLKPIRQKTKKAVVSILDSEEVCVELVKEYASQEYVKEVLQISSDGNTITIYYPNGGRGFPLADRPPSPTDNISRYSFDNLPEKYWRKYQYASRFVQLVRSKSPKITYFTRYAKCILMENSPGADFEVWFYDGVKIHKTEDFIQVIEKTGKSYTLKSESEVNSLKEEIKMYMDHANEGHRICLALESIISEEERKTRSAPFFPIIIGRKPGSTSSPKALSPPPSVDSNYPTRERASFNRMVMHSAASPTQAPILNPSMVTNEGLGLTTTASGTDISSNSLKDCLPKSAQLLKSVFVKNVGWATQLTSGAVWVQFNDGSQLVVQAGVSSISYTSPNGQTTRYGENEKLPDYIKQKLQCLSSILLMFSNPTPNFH
Sequence of Cyclin-dependent kinase 8 (Homo sapiens) (P49336 whole entry, canonical isoform): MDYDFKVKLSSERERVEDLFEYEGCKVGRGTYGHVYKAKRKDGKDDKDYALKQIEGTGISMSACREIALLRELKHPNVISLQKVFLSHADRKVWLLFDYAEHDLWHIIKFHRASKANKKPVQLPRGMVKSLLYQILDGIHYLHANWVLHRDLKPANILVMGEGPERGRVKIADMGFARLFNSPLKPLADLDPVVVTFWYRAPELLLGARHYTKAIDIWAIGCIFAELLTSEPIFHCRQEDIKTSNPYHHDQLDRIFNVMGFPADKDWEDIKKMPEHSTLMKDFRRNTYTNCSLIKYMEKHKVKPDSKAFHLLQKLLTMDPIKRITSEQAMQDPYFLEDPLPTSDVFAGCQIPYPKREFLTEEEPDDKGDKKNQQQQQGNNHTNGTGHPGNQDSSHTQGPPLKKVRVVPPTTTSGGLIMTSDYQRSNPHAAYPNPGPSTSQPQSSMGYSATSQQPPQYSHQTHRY
Sequence of Tyrosine-protein kinase TXK (Homo sapiens) (P42681 whole entry): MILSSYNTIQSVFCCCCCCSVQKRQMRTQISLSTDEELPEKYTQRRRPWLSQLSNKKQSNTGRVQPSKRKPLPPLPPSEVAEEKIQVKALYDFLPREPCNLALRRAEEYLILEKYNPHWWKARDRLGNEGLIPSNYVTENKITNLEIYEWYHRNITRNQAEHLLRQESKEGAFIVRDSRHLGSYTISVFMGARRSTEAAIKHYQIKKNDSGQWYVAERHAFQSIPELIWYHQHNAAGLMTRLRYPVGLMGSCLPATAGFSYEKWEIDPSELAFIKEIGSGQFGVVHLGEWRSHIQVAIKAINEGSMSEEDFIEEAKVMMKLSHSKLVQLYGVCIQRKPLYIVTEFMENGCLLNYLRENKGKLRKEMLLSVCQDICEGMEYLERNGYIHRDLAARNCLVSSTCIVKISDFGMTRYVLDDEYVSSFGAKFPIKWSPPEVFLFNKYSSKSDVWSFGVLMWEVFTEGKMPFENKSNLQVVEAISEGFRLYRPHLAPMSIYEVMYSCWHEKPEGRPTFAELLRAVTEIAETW

CSc1cccnc1N1CCN(Cc2nc3ccccc3[nH]2)CC1 [A-769]
inactive: [1] 100% | [2] 100% | [3] 100% | [4] 100% | [5] 87% | [6] 86% | [7] 82% | [8] 81% | [9] 100% | [10] 100% | [11] 91% | [12] 85% | [13] 100% | [14] 88% | [15] 100% | [16] 73% | [17] 80% | [18] 92% | [19] 100% | [20] 100% | [21] 87% | [22] 92% | [23] 100% | [24] 100% | [25] 80% | [26] 75% | [27] 100% | [28] 94% | [29] 100% | [30] 100% | [31] 96% | [32] 84% | [33] 100% | [34] 100% | [35] 100% | [36] 100% | [37] 94% | [38] 100% | [39] 100% | [40] 100% | [41] 90% | [42] 85% | [43] 100% | [44] 100% | [45] 100%

c1ccc(N2CCN(Cc3nc4ccccc4[nH]3)CC2)nc1 [ABT-724]
inactive: [1] 95% | [2] 98% | [3] 100% | [4] 100% | [5] 100% | [6] 100% | [7] 100% | [8] 100% | [9] 100% | [10] 100% | [11] 100% | [12] 99% | [13] 100% | [14] 78% | [15] 100% | [16] 100% | [17] 76% | [18] 100% | [19] 100% | [20] 100% | [21] 100% | [22] 100% | [23] 100% | [24] 65% | [25] 90% | [26] 100% | [27] 100% | [28] 80% | [29] 100% | [30] 100% | [31] 87% | [32] 99% | [33] 97% | [34] 91% | [35] 100% | [36] 100% | [37] 100% | [38] 93% | [39] 100% | [40] 77% | [41] 100% | [42] 100% | [43] 100% | [44] 95% | [45] 100%
